# Laboratory results as given in patent US10577378B2, “EIF4A-inhibiting compounds and methods related thereto” (eFFECTOR Therapeutics, Inc., priority 2015, dated 2020).
# Test system: MDA-MB-231 human breast cancer cells
# Assay: Cell proliferation assay (CellTiter-Glo, 72 hours treatment)
# Format: cell-based
# Settings: Homo sapiens, MDA-MB-231, 72 h, read-out: MDA-MB-231 cell proliferation assay (IC50)
# Summary of the method: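 IC50 categories: under 100 nM +++, 100–1000 nM ++, above 1000 nM +, derived by sigmoidal curve fitting of CellTiter-Glo luminescence. Cells plated at 2,500 per well, dosed the following day and exposed 72 h at 37 °C versus DMSO control.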
row,SMILES,IC50 [µM]
1,"COc1cncc2c1[C@]1(O)C(=O)C(C(=O)N(C)C)[C@@H](c3ccccc3)[C@]1(c1ccc(Br)cc1)O2 (mixture of isomers) [192F, Rac-(4bR,7S,7aR)-7a-(4-bromophenyl)-4b-hydroxy-4-methoxy-N,N-dimethyl-5-oxo-7-phenyl-4b,6,7,7a-tetrahydro-5H-cyclopenta[4,5]furo[2,3-c]pyridine-6-carboxamide]",> 1

# Same assay, conditions: Homo sapiens; MDA-MB-231 cells, 72 hours at 37° C., CellTiter-Glo; read-out: MDA-MB-231 cell proliferation assay (IC50)
row,SMILES,IC50 [µM]
1,"O[C@@H]1C(F)(F)[C@@H](c2ccccc2)[C@]2(c3ccc(Br)cc3)Oc3cc(Cl)cnc3[C@]12O (racemic) [91F, Rac-(5aR,6S,8S,8aS)-5a-(4-bromophenyl)-3-chloro-7,7-difluoro-6-phenyl-5a,6,7,8-tetrahydro-8aH-cyclopenta[4,5]furo[3,2-b]pyridine-8,8a-diol]",> 1
2,"CN(C)C(=O)[C@H]1[C@@H](O)[C@@]2(O)c3ncc(Cl)cc3O[C@@]2(c2ccc(S(C)(=O)=O)cc2)[C@@H]1c1ccccc1 (single isomer, unassigned) [12F]",> 1
3,"COc1cncc2c1[C@]1(O)[C@H](O)[C@H](C(=O)NC3COC3)[C@@H](c3ccccc3)[C@]1(c1ccc(Br)cc1)O2 (racemic) [239F, Rac-(4bS,5R,6R,7S,7aR)-7a-(4-bromophenyl)-4b,5-dihydroxy-4-methoxy-N-(oxetan-3-yl)-7-phenyl-4b,6,7,7a-tetrahydro-5H-cyclopenta[4,5]furo[2,3-c]pyridine-6-carboxamide]",< 0.1
4,"COc1cncc2c1[C@]1(O)[C@H](O)[C@H](CNCC(F)F)[C@@H](c3ccccc3)[C@]1(c1ccc(C#N)cc1)O2 (single isomer, unassigned) [115F]",0.1 to 1
5,"COc1cncc2c1[C@]1(O)[C@H](O)[C@H](C(=O)N3CCOCC3)[C@@H](c3ccccc3)[C@]1(c1ccc(Br)cc1)O2 (racemic) [87F, Rac-((4bS,5R,6R,7S,7aR)-7a-(4-bromophenyl)-4b,5-dihydroxy-4-methoxy-7-phenyl-4b,6,7,7a-tetrahydro-5H-cyclopenta[4,5]furo[2,3-c]pyridin-6-yl)(morpholino)methanone]",< 0.1
6,"CN(C)C(=O)[C@H]1[C@@H](O)[C@@]2(O)c3ncc(Cl)cc3O[C@@]2(c2ccc(F)cc2)[C@@H]1c1ccccc1 (single isomer, unassigned) [10F]",> 1
7,"COc1nc(Cl)cc2c1[C@]1(O)[C@H](O)[C@H](CN(C)C)[C@@H](c3ccccc3)[C@]1(c1ccc(Br)cc1)O2 (racemic) [138F, Rac-(5aR,6S,7S,8R,8aS)-5a-(4-bromophenyl)-3-chloro-7-((dimethylamino)methyl)-1-methoxy-6-phenyl-5a,6,7,8-tetrahydro-8aH-cyclopenta[4,5]furo[3,2-c]pyridine-8,8a-diol]",< 0.1
8,"COC[C@H]1[C@@H](O)[C@@]2(O)c3ncc(Cl)cc3O[C@@]2(c2ccc(Br)cc2)[C@@H]1c1ccccc1 (racemic) [62F, rac-(5aR,6S,7S,8R,8aS)-5a-(4-bromophenyl)-3-chloro-7-(methoxymethyl)-6-phenyl-5a,6,7,8-tetrahydro-8aH-cyclopenta[4,5]furo[3,2-b]pyridine-8,8a-diol]",0.1 to 1
9,"CN(C)C(=O)[C@H]1[C@@H](O)[C@@]2(O)c3nc(C(F)(F)F)c(O)cc3O[C@@]2(c2ccc(C#N)cc2)[C@@H]1c1ccccc1 (racemic) [29F, Rac-(5aR,6S,7R,8R,8aS)-5a-(4-cyanophenyl)-3,8,8a-trihydroxy-N,N-dimethyl-6-phenyl-2-(trifluoromethyl)-5a,7,8,8a-tetrahydro-6H-cyclopenta[4,5]furo[3,2-b]pyridine-7-carboxamide]",> 1
10,"COc1cncc2c1[C@]1(O)[C@@H]3OC(=O)N[C@@H]3[C@@H](c3ccccc3)[C@]1(c1ccc(C(F)F)cc1)O2 (racemic) [269F, rac-(3aR,4R,4aR,9bS,9cR)-4a-(4-(difluoromethyl)phenyl)-9b-hydroxy-9-methoxy-4-phenyl-3,3a,4,4a,9b,9c-hexahydro-2H-oxazolo[4″,5″:4′,5′]cyclopenta[1′,2′:4,5]furo[2,3-c]pyridin-2-one]",< 0.1
11,"COc1cncc2c1[C@]1(O)[C@H](O)[C@H](CN(C)Cc3cccnc3)[C@@H](c3ccccc3)[C@]1(c1ccc(C#N)cc1)O2 [278F, 4-((4bS,5R,6S,7S,7aR)-4b,5-dihydroxy-4-methoxy-6-((methyl(pyridin-3-ylmethyl)amino)methyl)-7-phenyl-4b,5,6,7-tetrahydro-7aH-cyclopenta[4,5]furo[2,3-c]pyridin-7a-yl)benzonitrile]",0.1 to 1
12,"COc1cncc2c1[C@]1(O)[C@H](O)[C@H](S(=O)(=O)CC(F)(F)F)[C@@H](c3ccccc3)[C@]1(c1ccc(Br)cc1)O2 (racemic) [117F, Rac-(4bS,5S,6R,7S,7aR)-7a-(4-bromophenyl)-4-methoxy-7-phenyl-6-((2,2,2-trifluoroethyl)sulfonyl)-5,6,7,7a-tetrahydro-4bH-cyclopenta[4,5]furo[2,3-c]pyridine-4b,5-diol]",> 1
13,"CN(C)C(=O)[C@H]1[C@@H](O)[C@@]2(O)c3ccc(C#N)cc3S[C@@]2(c2ccc(C#N)cc2)[C@@H]1c1ccccc1 (racemic) [13F, Rac-(1R,2R,3S,3aR,8bS)-6-cyano-3a-(4-cyanophenyl)-1,8b-dihydroxy-N,N-dimethyl-3-phenyl-2,3,3a,8b-tetrahydro-1H-benzo[b]cyclopenta[d]thiophene-2-carboxamide]",> 1
14,"COc1ccc([C@@]23Oc4cc(OC)ccc4[C@]2(N)[C@H](O)[C@H](C(=O)N(C)C)[C@H]3c2ccccc2)cc1 (racemic) [44F, Rac-(1R,2R,3S,3aR,8bS)-8b-amino-1-hydroxy-6-methoxy-3a-(4-methoxyphenyl)-N,N-dimethyl-3-phenyl-2,3,3a,8b-tetrahydro-1H-cyclopenta[b]benzofuran-2-carboxamide]",> 1
15,"COc1nc(Cl)cc2c1[C@]1(O)[C@H](O)[C@H](CN3CC(F)(F)C3)[C@@H](c3ccccc3)[C@]1(c1ccc(C#N)cc1)O2 (racemic) [207Fb, Rac-4-((5aR,6S,7S,8R,8aS)-3-chloro-7-((3,3-difluoroazetidin-1-yl)methyl)-8,8a-dihydroxy-1-methoxy-6-phenyl-6,7,8,8a-tetrahydro-5aH-cyclopenta[4,5]furo[3,2-c]pyridin-5a-yl)benzonitrile]",0.1 to 1
16,"COc1cncc2c1[C@]1(O)[C@H](O)[C@H](C(=O)N(C)CC(F)F)[C@@H](c3ccccc3)[C@]1(c1ccc(Br)cc1)O2 (racemic) [111F, Rac-(4bS,5R,6R,7S,7aR)-7a-(4-bromophenyl)-N-(2,2-difluoroethyl)-4b,5-dihydroxy-4-methoxy-N-methyl-7-phenyl-4b,6,7,7a-tetrahydro-5H-cyclopenta[4,5]furo[2,3-c]pyridine-6-carboxamide]",< 0.1
17,"COc1cncc2c1[C@]1(O)[C@H](O)[C@H](CN(C)CCF)[C@@H](c3ccccc3)[C@]1(c1ccc(C#N)cc1)O2 (single isomer, unassigned) [248F]",< 0.1
18,"CNC[C@H]1[C@@H](O)[C@@]2(O)c3c(OC)cncc3O[C@@]2(c2ccc(C#N)cc2)[C@@H]1c1ccccc1 (racemic) [69F, Rac-4-((4bS,5R,6S,7S,7aR)-4b,5-dihydroxy-4-methoxy-6-((methylamino)methyl)-7-phenyl-4b,5,6,7-tetrahydro-7aH-cyclopenta[4,5]furo[2,3-c]pyridin-7a-yl)benzonitrile]",0.1 to 1
19,"COc1cncc2c1[C@]1(O)[C@H](O)[C@H](CN3[C@@H]4CC[C@H]3COC4)[C@@H](c3ccccc3)[C@]1(c1ccc(C#N)cc1)O2 (single isomer, unassigned) [265F]",0.1 to 1
20,"COc1cncc2c1[C@]1(O)[C@H](O)[C@H](S(=O)(=O)N3CCOCC3)[C@@H](c3ccccc3)[C@]1(c1ccc(C#N)cc1)O2 (single isomer, unassigned) [126F]",0.1 to 1
21,"COc1ccc([C@@]23Oc4cc(OC)cnc4[C@]2(O)[C@H](O)[C@H](C(=O)N(C)C)[C@H]3c2ccccc2)cc1 (racemic) [1F, Rac-(5aR,6S,7R,8R,8aS)-8,8a-dihydroxy-3-methoxy-5a-(4-methoxyphenyl)-N,N-dimethyl-6-phenyl-5a,7,8,8a-tetrahydro-6H-cyclopenta[4,5]furo[3,2-b]pyridine-7-carboxamide]",0.1 to 1
22,"CN(C)C[C@H]1[C@@H](O)[C@@]2(O)c3ncc(Cl)cc3O[C@@]2(c2ccc(C#N)cc2)[C@@H]1c1ccccc1 [104F, 4-((5aR,6S,7S,8R,8aS)-3-chloro-7-((dimethylamino)methyl)-8,8a-dihydroxy-6-phenyl-6,7,8,8a-tetrahydro-5aH-cyclopenta[4,5]furo[3,2-b]pyridin-5a-yl)benzonitrile]",0.1 to 1
23,"COc1cncc2c1[C@]1(O)[C@H](O)[C@H](CNCC(F)F)[C@@H](c3ccccc3)[C@]1(c1ccc(C(F)(F)F)cc1)O2 (single isomer, unassigned) [286F]",0.1 to 1
24,"O[C@@]12C=C[C@@H](c3ccccc3)[C@]1(c1ccc(Br)cc1)Oc1cc(Cl)cnc12 (racemic) [133F, Rac-(5aR,6S,8aR)-5a-(4-bromophenyl)-3-chloro-6-phenyl-5a,6-dihydro-8aH-cyclopenta[4,5]furo[3,2-b]pyridin-8a-ol]",> 1
25,"N#Cc1ccc([C@@]23Oc4cc(Cl)cnc4[C@]2(O)[C@@H](C#N)[C@H](C(N)=O)[C@H]3c2ccccc2)cc1 (racemic) [52F, Rac-(5aR,6S,7R,8R,8aR)-3-chloro-8-cyano-5a-(4-cyanophenyl)-8a-hydroxy-6-phenyl-5a,7,8,8a-tetrahydro-6H-cyclopenta[4,5]furo[3,2-b]pyridine-7-carboxamide]",0.1 to 1
26,"COc1nccc2c1[C@]1(O)[C@H](O)[C@H](C(=O)N(C)C)[C@@H](c3ccccc3)[C@]1(c1ccc(C#N)cc1)O2 (racemic) [19F, rac-(5aR,6S,7R,8R,8aS)-5a-(4-cyanophenyl)-8,8a-dihydroxy-1-methoxy-N,N-dimethyl-6-phenyl-5a,7,8,8a-tetrahydro-6H-cyclopenta[4,5]furo[3,2-c]pyridine-7-carboxamide]",0.1 to 1
